Measurements as given in patent publication US8916535B2, “Use of 2′,5′-oligoadenylate derivative compounds” (Protea Biopharma N.V., priority 2010, dated 2014).

Tests used:
XMRV = test: XMRV-replication in acutely infected CD4+ T lymphocytes from healthy individuals (ELISA of culture supernatants); format: cell-based; conditions: freshly isolated CD4+ T cells treated with 10, 100 and 1000 nM then infected with XMRV; 96 h post-infection; compared to untreated controls
Experimental: First, the activity of 2-5A^N1B on XMRV-replication is tested in CD4^+ T lymphocytes purified from healthy individuals. To determine the effective dose of 2-5A^N1B during acute XMRV infection, freshly isolated CD4^+ T cells are treated with three concentrations of 2-5A^N1B (10, 100 and 1000 nM) and then infected with XMRV. XMRV-replication is assessed in culture supernatants by ELISA.

wild-type XMRV = test: XMRV replication in chronically infected CD4+ cells derived from XMRV-positive individuals (ELISA of supernatants); format: cell-based; conditions: purified CD4+ T lymphocytes from XMRV-positive adults; in vitro; compared to untreated cells
Experimental: Secondly, the activity of 2-5A^N1B is tested on chronically infected cells derived from XMRV-positive individuals. XMRV-positive adults are recruited from the clinic. The antiviral response to 2-5A^N1B in vitro is assessed by ELISA in the supernatants of cultured CD4+ cells.

For “N^1-benzyl-3′-deoxyadenylyl-(2′-5′)-3′-deoxyadenylyl-(2′-5′)-3′-deoxyadenylyl-(2′-2″)—N^9-[(2″-hydroxy-ethoxy)-methyl]-adenine [2-5A^N1B]”, the XMRV-replication (XMRV) was “significant decrease” and the “replication of wild-type XMRV” value (wild-type XMRV) was “significantly inhibits”.
